SMILES strings stand for the structures.

In the assay the test system is genotype A, "Long" strain RSV. In words: RSV-A in vitro cytoprotection assay in HEp-2 cells (ATPlite readout of cell viability). In kind it is cell-based, Human respiratory syncytial virus. The following applies: human respiratory syncytial virus, HEp-2, HEp-2 cells, genotype A “Long” strain RSV, cytoprotection; read-out: Human RSV-A (“Long” strain) EC50. An excerpt:
RSV is a single stranded negative sense RNA virus that causes respiratory tract infections which can be dangerous to infants, the elderly, and immunosuppressed individuals. Currently there is no vaccine, and therapeutic options are both costly and of limited effectiveness. These approved treatments are Ribavirin, and Palivizumab/Synagis (a monoclonal antibody). RSV has two genotypes, A and B, which differ primarily in the structure of the virus' surface “G” attachment protein. Our current primary screen focuses on RSV-A and uses an in vitro cytoprotection assay where compounds are added in 2-fold dilutions to cells which are then subjected to fully replicative viral particles. Cell viability is measured several days later along with separate measurements of compound cytotoxicity. This report focuses on the results of our most recent screening of compounds.
HEp-2 cells, (originally derived from tumors grown in irradiated-cortisonised weanling rats that had been injected with epidermoid carcinoma tissue from a person's larynx, but later found to be indistinguishable from HeLa cells by PCR DNA analysis), were used for the culturing of genotype A, “Long” strain RSV. Flasks were inoculated with RSV and viral stocks were collected once cytopathic effect (CPE) was greater than 90%. Viral stocks in 25% sucrose media were snap frozen using liquid nitrogen to increase viral stability. Viral stock titers were quantified by tissue culture infectious dose 50% (TCID50) using 8,000 cells per well and 3-fold viral dilutions across a 96-well plate, cultured for 4 days.
Following extensive parameter testing, the final assay is run as follows: HEp-2 cells are seeded into the inner 60 wells of a 96-well plate at 8,000 cells per well in a volume of 50 μL using Growth Media (DMEM without phenol red, 1% L-Glut, 1% Penn/Strep, 1% nonessential amino acids, 10% FBS). 2-Fold serial dilutions of control and test compounds are added to the wells in duplicate in a total volume of 25 μL. Viral stock is then added to the wells in a volume of 25 μL, bringing the total volume of each well to 100 μL. Each 96-well plate has a control column of 6 wells with cells and virus but no compound (negative control, max CPE), a column with cells but no compound or virus (positive control, minimum CPE), and a column with no cells or virus or compound (background plate/reagent control). The control wells with cells but no virus are given an additional 25 uL of growth media containing an equal quantity of sucrose as those wells receiving the viral stock in order to keep consistent in media and volume conditions. The outer wells of the plate are filled with 125 μL of growth media to act as a thermal and evaporative moat around the test wells. Following a 4-day incubation period, the plates are read using ATPlite (50 uL added per well), which quantifies the amount of ATP (a measure of cell health) present in each well. Assay plates are read using the Envision luminometer. In parallel, cytotoxicity is examined on an additional 96-well plate treated in an identical manner, but substituting the 25 μL of viral stock for 25 μL of growth media. […] EC50 ranges are as follows: A <0.4 μM; B 0.4-0.8 μM; C >0.8 μM.
In general terms: Cellular ATP, detected with luciferase, serves as a proxy for viable cell number.
One may read the EC50 as the concentration at which the effect is half-maximal. Consider `O=C(NC1CC1)c1cc2c(s1)-c1ccccc1N(C(=O)c1ccc(CN3CCOCC3)cc1)CC2` [Example 1], for which the EC50 was > 800 nM.
Under `O=C(NC1CC1)c1cc2c(s1)-c1ccccc1N(C(=O)c1cccc(CN3CCOCC3)c1)CC2` [Example 2] stands > 800 nM.
In the case of `O=C(NC1CC1)c1cc2c(s1)-c1ccccc1N(C(=O)c1ccc(N3CCOCC3)cc1)CC2` [Example 3] it was > 800 nM; in that of `O=C(NC1CC1)c1cc2c(s1)-c1ccccc1N(C(=O)c1cccc(N3CCOCC3)c1)CC2` [Example 4], > 800 nM; in that of `COc1ccc(-c2cccc(C(=O)N3CCc4cc(C(=O)NC5CC5)sc4-c4ccccc43)c2)cc1` [Example 5], 400 to 800 nM.
In the case of `COc1ccc(-c2cccc(C(=O)N3CCc4cc(C(=O)NC5CC5)sc4-c4ccccc43)c2)cn1` [Example 6] it was > 800 nM; in that of `N#Cc1ccc(-c2cccc(C(=O)N3CCc4cc(C(=O)NC5CC5)sc4-c4ccccc43)c2)cc1` [Example 7], 400 to 800 nM.
For `O=C(NC1CC1)c1cc2c(s1)-c1ccccc1N(C(=O)c1ccc(CC(=O)N3CCOCC3)cc1)CC2` [Example 8], the concentration for a half-maximal effect (EC50) was > 800 nM.
Take `CS(=O)(=O)N1CCCc2cc(C(=O)N3CCc4cc(C(=O)NC5CC5)sc4-c4ccccc43)ccc21` [Example 9]: the EC50 is > 800 nM.
In the case of `O=C(NC1CC1)c1cc2c(s1)-c1ccccc1N(C(=O)c1ccc3nc(N4CCOCC4)oc3c1)CC2` [Example 10] it was > 800 nM.
With `O=C(NC1CC1)c1cc2c(s1)-c1ccccc1N(C(=O)c1ccc3nc(CN4CCOCC4)oc3c1)CC2` [Example 11], the concentration giving a half-maximal response (EC50) is > 800 nM.
In the case of `O=C(NC1CC1)c1cc2c(s1)-c1ccccc1N(C(=O)c1csc(N3CCOCC3)n1)CC2` [Example 12] it was 400 to 800 nM.
As to `O=C(NC1CC1)c1cc2c(s1)-c1ccccc1N(C(=O)c1ccc3ncn(C4CCOCC4)c3c1)CC2` [Example 13], the EC50 is > 800 nM.
On to `O=C(NC1CC1)c1cc2c(s1)-c1ccccc1N(C(=O)c1ccc3c(c1)ncn3C1CCOCC1)CC2` [Example 14], for which the EC50 is > 800 nM.
In the case of `O=C(NC1CC1)c1cc2c(s1)-c1ccccc1N(C(=O)c1ccc(NC(=O)N3CCOCC3c3ccccc3)cc1)CC2` (stereo not drawn) [Example 15] it was > 800 nM.
On to `O=C(NC1CC1)c1cc2c(s1)-c1ccccc1N(C(=O)c1cccc(N3CCOCC3)n1)CC2` [Example 16], for which the EC50 fell in the range of 400 to 800 nM.
Consider `O=C(NC1CC1)c1cc2c(s1)-c1ccccc1N(C(=O)c1cccc(N3CCCOCC3)n1)CC2` [Example 17], for which the concentration for a half-maximal effect (EC50) is < 400 nM.
Under `O=C(NC1CC1)c1cc2c(s1)-c1ccccc1N(C(=O)c1cccc(N3CCC4(CC3)COC4)n1)CC2` [Example 18] stands 400 to 800 nM.
In the case of `O=C(NC1CC1)c1cc2c(s1)-c1ccccc1N(C(=O)c1cccc(N3CC4(CCOCC4)C3)n1)CC2` [Example 19] it was > 800 nM; in that of `CC(=O)N1CCN(c2cccc(C(=O)N3CCc4cc(C(=O)NC5CC5)sc4-c4ccccc43)n2)CC1` [Example 20], 400 to 800 nM.
Under `COC1CCN(c2cccc(C(=O)N3CCc4cc(C(=O)NC5CC5)sc4-c4ccccc43)n2)CC1` [Example 21] stands 400 to 800 nM.
`O=C1CN(c2cccc(C(=O)N3CCc4cc(C(=O)NC5CC5)sc4-c4ccccc43)n2)CCN1` [Example 22]: the half-maximal effective concentration (EC50) was 400 to 800 nM.
Under `O=C(NC1CC1)c1cc2c(s1)-c1ccccc1N(C(=O)c1cccc(N3CCC(F)(F)CC3)n1)CC2` [Example 23] stands < 400 nM; under `CC1CN(c2cccc(C(=O)N3CCc4cc(C(=O)NC5CC5)sc4-c4ccccc43)n2)CC(C)O1` (stereo not drawn) [Example 24], 400 to 800 nM; under `O=C(NC1CC1)c1cc2c(s1)-c1ccccc1N(C(=O)c1cccc(N3CCC4(CC3)CC4)n1)CC2` [Example 25], 400 to 800 nM.
In the case of `O=C(NC1CC1)c1cc2c(s1)-c1ccccc1N(C(=O)c1cccc(N3CCC4(CCOCC4)CC3)n1)CC2` [Example 26] it was 400 to 800 nM; in that of `O=C(NC1CC1)c1cc2c(s1)-c1ccccc1N(C(=O)c1cccc(N3CCN(C4COC4)CC3)n1)CC2` [Example 27], 400 to 800 nM.
For the molecule `O=C(NC1CC1)c1cc2c(s1)-c1ccccc1N(C(=O)c1cccc(N3CC4CCC(C3)O4)n1)CC2` [Example 28], the EC50 was < 400 nM.
In the case of `O=C(NC1CC1)c1cc2c(s1)-c1ccccc1N(C(=O)c1cccc(N3C4CCC3COC4)n1)CC2` [Example 29] it was 400 to 800 nM; in that of `O=C(NC1CC1)c1cc2c(s1)-c1ccccc1N(C(=O)c1cccc(N3CCC(c4ccccc4)CC3)n1)CC2` [Example 30], > 800 nM.
On to `O=C(NC1CC1)c1cc2c(s1)-c1ccccc1N(C(=O)c1cccc(N3CCc4ccccc4CC3)n1)CC2` [Example 31], for which the concentration for a half-maximal effect (EC50) was > 800 nM.
For `O=C(NC1CC1)c1cc2c(s1)-c1ccccc1N(C(=O)c1cccc(N3CCOc4ccccc4C3)n1)CC2` [Example 32], the half-maximal effective concentration (EC50) is < 400 nM.
Under `COCCNc1cccc(C(=O)N2CCc3cc(C(=O)NC4CC4)sc3-c3ccccc32)n1` [Example 33] stands 400 to 800 nM.
Regarding `COCCN(C)c1cccc(C(=O)N2CCc3cc(C(=O)NC4CC4)sc3-c3ccccc32)n1` [Example 34], the EC50 lay in the range of 400 to 800 nM.
In the case of `COCCCNc1cccc(C(=O)N2CCc3cc(C(=O)NC4CC4)sc3-c3ccccc32)n1` [Example 35], the EC50 lay within 400 to 800 nM.
Under `CN1CCCN(c2cccc(C(=O)N3CCc4cc(C(=O)NC5CC5)sc4-c4ccccc43)n2)CC1` [Example 36] stands 400 to 800 nM; under `N[C@H]1CCN(c2cccc(C(=O)N3CCc4cc(C(=O)NC5CC5)sc4-c4ccccc43)n2)C1` [Example 37], > 800 nM.
In the case of `N[C@@H]1CCN(c2cccc(C(=O)N3CCc4cc(C(=O)NC5CC5)sc4-c4ccccc43)n2)C1` [Example 38] it was > 800 nM.
Turning to `COc1ccc(C(=O)N2CCc3cc(C(=O)NC4CC4)sc3-c3ccccc32)nc1N1CCOCC1` [Example 39], the EC50 is > 800 nM.
In the case of `COc1ccc(C(=O)N2CCc3cc(C(=O)NC4CC4)sc3-c3ccccc32)nc1N1CCCOCC1` [Example 40] it was 400 to 800 nM; in that of `O=C(NC1CC1)c1cc2c(s1)-c1ccccc1N(C(=O)c1ccc(Cl)c(N3CCOCC3)n1)CC2` [Example 42], 400 to 800 nM.
In the case of `O=C(NC1CC1)c1cc2c(s1)-c1ccccc1N(C(=O)c1ccc(Cl)c(N3CCCOCC3)n1)CC2` [Example 43] it was 400 to 800 nM; in that of `O=C(NC1CC1)c1cc2c(s1)-c1ccccc1N(C(=O)c1ccc(F)c(N3CCOCC3)n1)CC2` [Example 44], 400 to 800 nM.
In the case of `O=C(NC1CC1)c1cc2c(s1)-c1ccccc1N(C(=O)c1ccc(F)c(N3CCCOCC3)n1)CC2` [Example 45] it was < 400 nM.
For `O=C(NC1CC1)c1cc2c(s1)-c1ccccc1N(C(=O)c1ccnc(N3CCOCC3)c1)CC2` [Example 46], the EC50 was > 800 nM.
In the case of `O=C(NC1CC1)c1cc2c(s1)-c1ccccc1N(C(=O)c1cncc(N3CCOCC3)c1)CC2` [Example 47] it was > 800 nM; in that of `O=C(NC1CC1)c1cc2c(s1)-c1ccccc1N(C(=O)c1cc(N3CCOCC3)ccn1)CC2` [Example 48], > 800 nM.
Regarding `O=C(NC1CC1)c1cc2c(s1)-c1ccccc1N(C(=O)c1cc(N3CCOCC3)ncn1)CC2` [Example 49], the half-maximal effective concentration (EC50) was > 800 nM.
As to `O=C(NC1CC1)c1cc2c(s1)-c1ccccc1N(C(=O)c1cc(N3CCCOCC3)ncn1)CC2` [Example 50], the EC50 is > 800 nM.
For `O=C(NC1CC1)c1cc2c(s1)-c1ccccc1N(C(=O)c1ccnc(N3CCOCC3)n1)CC2` [Example 51], the EC50 lay within 400 to 800 nM.
Regarding `O=C(NC1CC1)c1cc2c(s1)-c1ccccc1N(C(=O)c1ccnc(N3CCCOCC3)n1)CC2` [Example 52], the 50% effective concentration (EC50) was in the range of 400 to 800 nM.
As for `O=C(NC1CC1)c1cc2c(s1)-c1ccccc1N(C(=O)c1cncc(N3CCOCC3)n1)CC2` [Example 53], the EC50 fell in the range of 400 to 800 nM.
In the case of `O=C(NC1CC1)c1cc2c(s1)-c1ccccc1N(C(=O)c1cccc(C3=CCNCC3)n1)CC2` [Example 54] it was > 800 nM.
Under `O=C(NC1CC1)c1cc2c(s1)-c1ccccc1N(C(=O)c1cccc(C3CCNCC3)n1)CC2` [Example 55] stands > 800 nM.

The values above are taken from patent publication US10759816B2, “Heterocyclic compounds as RSV inhibitors” (Enanta Pharmaceuticals, Inc., priority 2016, dated 2020).
